Assay results taken from US8993756B2 (Merck Sharp & Dohme Corp., priority 2011, dated 2015).

Legend:
[1] = target: JAK2 (Homo sapiens (Human), UniProt O60674); assay: Jak Biochemical HTRF Assay (JAK2); settings: recombinant GST-tagged catalytic domain, [ATP] 8.5 μM
Method: (§1) Biological Assays Jak Biochemical HTRF Assay Protocol
The ability of compounds to inhibit the activity of JAK1, JAK2, JAK3, and Tyk2 was measured using a recombinant purified GST-tagged catalytic domain for each enzyme (Invitrogen JAK1 #M4290, JAK2 #M4290, JAK3 #M4290, Tyk2 #M4290) in an HTRF format biochemical assay. […] The basic assay protocol is as follows: First, 250 nL of diluted compounds in DMSO were dispensed into the wells of a dry 384-well Black plate (Greiner #781076) using a Labcyte Echo 555 acoustic dispenser. Subsequent reagent additions employed an Agilent Bravo. Next, 18 μL of 1.11× enzyme and 1.11× substrate in 1× assay buffer (Invitrogen kinase buffer # PV3189, 2 mM DTT, 0.05% BSA) were added to the wells and shaken and then preincubated for 30 minutes at room temperature to allow compound binding to equilibrate. After equilibration, 2 μL of 10×ATP in 1× assay buffer was added to initiate the kinase reaction and the plates were shaken and then incubated at room temperature for 120 minutes. At the end of the incubation, 20 μL of 2× stop buffer (streptavidin-Dylight 650 (Thermo #84547B100 mL), Eu-tagged pY20 antibody (Perkin Elmer #AD0067), EDTA, HEPES, and Triton) was added to quench the reaction. Plates were shaken and centrifuged and then incubated 60 minutes at room temperature and then read on a Perkin Elmer Envision (λex=337 nm, λem=665 and 615 nm, TRF delay time=20 μs). HTRF signal=10,000*665 nm reading 615 nm reading. After normalization to untreated controls, the percent inhibition of the HTRF signal at each compound concentration was calculated. The plot of percent inhibition versus the log of compound concentration was fit with a 4-parameter dose response equation to calculate IC50 values.

[2] = target: JAK3 (Homo sapiens (Human), UniProt P52333); assay: Jak Biochemical HTRF Assay (JAK3); settings: recombinant GST-tagged catalytic domain, [ATP] 2.9 μM
Chain of JAK3 (P52333 822-1111): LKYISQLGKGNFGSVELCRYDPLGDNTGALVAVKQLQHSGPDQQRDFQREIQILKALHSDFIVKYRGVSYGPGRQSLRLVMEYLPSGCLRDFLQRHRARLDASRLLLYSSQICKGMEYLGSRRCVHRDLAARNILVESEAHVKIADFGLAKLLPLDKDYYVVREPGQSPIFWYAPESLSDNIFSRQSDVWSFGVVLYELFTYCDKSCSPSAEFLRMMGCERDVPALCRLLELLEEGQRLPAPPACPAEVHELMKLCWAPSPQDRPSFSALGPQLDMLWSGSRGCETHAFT
Method: as §1
The ability of compounds to inhibit the activity of JAK1, JAK2, JAK3, and Tyk2 was measured using a recombinant purified GST-tagged catalytic domain for each enzyme (Invitrogen JAK1 #M4290, JAK2 #M4290, JAK3 #M4290, Tyk2 #M4290) in an HTRF format biochemical assay. […] Subsequent reagent additions employed an Agilent Bravo. […] After equilibration, 2 μL of 10×ATP in 1× assay buffer was added to initiate the kinase reaction and the plates were shaken and then incubated at room temperature for 120 minutes. At the end of the incubation, 20 μL of 2× stop buffer (streptavidin-Dylight 650 (Thermo #84547B100 mL), Eu-tagged pY20 antibody (Perkin Elmer #AD0067), EDTA, HEPES, and Triton) was added to quench the reaction. […] After normalization to untreated controls, the percent inhibition of the HTRF signal at each compound concentration was calculated. The plot of percent inhibition versus the log of compound concentration was fit with a 4-parameter dose response equation to calculate IC50 values.

Chain of JAK2 (O60674 849-1124): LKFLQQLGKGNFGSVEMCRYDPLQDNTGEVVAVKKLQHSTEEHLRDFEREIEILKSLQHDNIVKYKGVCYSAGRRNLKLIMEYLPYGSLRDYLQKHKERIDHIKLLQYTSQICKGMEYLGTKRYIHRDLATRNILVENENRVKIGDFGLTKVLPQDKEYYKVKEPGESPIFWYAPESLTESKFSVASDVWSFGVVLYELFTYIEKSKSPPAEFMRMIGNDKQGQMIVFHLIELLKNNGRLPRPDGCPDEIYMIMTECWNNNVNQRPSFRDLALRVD

Compound	IC50 ([1]; given as range class)	IC50 ([2]; given as range class)	IC50 [1]	IC50 [2]
CCOC(=O)c1c[nH]c2ncnc(-c3ccc4nnn(C)c4c3)c12 [Example 1-67, ethyl 4-(1-methyl-1H-benzotriazol-6-yl)-7H-pyrrolo[2,3-d]pyrimidine-5-carboxylate]	> 500 nM	10 to 500 nM	–	–
CCOC(=O)c1c[nH]c2ncnc(-c3cccc4c3CCCNC4=O)c12 [Example 1-68, ethyl 4-(1-oxo-2,3,4,5-tetrahydro-1H-2-benzazepin-6-yl)-7H-pyrrolo[2,3-d]pyrimidine-5-carboxylate]	> 500 nM	10 to 500 nM	–	–
CCOC(=O)c1c[nH]c2ncnc(-c3ccc4[nH]ncc4c3)c12 [Example 1-69, ethyl 4-(1H-indazol-5-yl)-7H-pyrrolo[2,3-d]pyrimidine-5-carboxylate]	–	–	98 nM	6.5 nM
CCOC(=O)c1c[nH]c2ncnc(-c3csc4ccccc34)c12 [Example 1-71, ethyl 4-(1-benzothiophen-3-yl)-7H-pyrrolo[2,3-d]pyrimidine-5-carboxylate]	> 500 nM	10 to 500 nM	–	–
CCOC(=O)c1c[nH]c2ncnc(-c3ccc4[nH]nc(C(F)(F)F)c4c3)c12 [Example 1-72, ethyl 4-[3-(trifluoromethyl)-1H-indazol-5-yl]-7H-pyrrolo[2,3-d]pyrimidine-5-carboxylate]	> 500 nM	10 to 500 nM	–	–
CCOC(=O)c1c[nH]c2ncnc(-c3ccc4c(c3)CN(C(=O)OC(C)(C)C)C4=O)c12 [Example 1-77, ethyl 4-[2-(tert-butoxycarbonyl)-1-oxo-2,3-dihydro-1H-isoindol-5-yl]-7H-pyrrolo[2,3-d]pyrimidine-5-carboxylate]	> 500 nM	10 to 500 nM	–	–

Second part, the compound after the results:

IC50 ([1]; given as range class)	IC50 ([2]; given as range class)	IC50 [1]	IC50 [2]	Compound
> 500 nM	10 to 500 nM	–	–	CCOC(=O)c1c[nH]c2ncnc(-c3cccc4c3CNC4=O)c12 [Example 1-73, ethyl 4-(1-oxo-2,3-dihydro-1H-isoindol-4-yl)-7H-pyrrolo[2,3-d]pyrimidine-5-carboxylate]
> 500 nM	10 to 500 nM	–	–	CCOC(=O)c1c[nH]c2ncnc(-c3ccc4c(c3)CCN(C(=O)OC(C)(C)C)C4)c12 [Example 1-74, tent-butyl 6-[5-(ethoxycarbonyl)-7H-pyrrolo[2,3-d]pyrimidin-4-yl]-3,4-dihydroisoquinoline-2(1H)-carboxylate]
> 500 nM	10 to 500 nM	–	–	CCOC(=O)c1c[nH]c2ncnc(-c3ccc4c(c3)C(=O)NC4)c12 [Example 1-75, ethyl 4-(3-oxo-2,3-dihydro-1H-isoindol-5-yl)-7H-pyrrolo[2,3-d]pyrimidine-5-carboxylate]
10 to 500 nM	10 to 500 nM	–	–	CCOC(=O)c1c[nH]c2ncnc(-c3ccc4cn[nH]c4c3)c12 [Example 1-76, ethyl 4-(1H-indazol-6-yl)-7H-pyrrolo[2,3-d]pyrimidine-5-carboxylate]
> 500 nM	10 to 500 nM	–	–	CCOC(=O)c1c[nH]c2ncnc(-c3ccc4c(c3)CN(C(=O)OC(C)(C)C)CC4)c12 [Example 1-78, tert-butyl 7-[5-(ethoxycarbonyl)-7H-pyrrolo[2,3-d]pyrimidin-4-yl]-3,4-dihydroisoquinoline-2(1H)-carboxylate]
> 500 nM	10 to 500 nM	–	–	CCOC(=O)c1c[nH]c2ncnc(-c3ccc4c(c3)CN(C(=O)OC(C)(C)C)CCO4)c12 [Example 1-79, tent-butyl 7-[5-(ethoxycarbonyl)-7H-pyrrolo[2,3-d]pyrimidin-4-yl]-2,3-dihydro-1,4-benzoxazepine-4(5H)-carboxylate]
–	–	53 nM	2.3 nM	CCOC(=O)c1c[nH]c2ncnc(-c3ccc(N)cc3)c12 [Example 1-80, ethyl 4-(4-aminophenyl)-7H-pyrrolo[2,3-d]pyrimidine-5-carboxylate]
> 500 nM	10 to 500 nM	–	–	CCOC(=O)c1c[nH]c2ncnc(-c3ccn[nH]3)c12 [Example 1-81, ethyl 4-(1H-pyrazol-5-yl)-7H-pyrrolo[2,3-d]pyrimidine-5-carboxylate]
10 to 500 nM	10 to 500 nM	–	–	CCOC(=O)c1c[nH]c2ncnc(-c3ccc4scnc4c3)c12 [Example 1-82, ethyl 4-(1,3-benzothiazol-5-yl)-7H-pyrrolo[2,3-d]pyrimidine-5-carboxylate]
